In patent US8324172B2, “G protein coupled receptor agonists and antagonists and methods of activating and inhibiting G protein coupled receptors using the same” (Tufts Medical Center, Inc., priority 2000, dated 2012):
Changes are numbered by the printed parent chain. “Also recorded” adds a separate entry of the source. Where a SMILES comes first, the peptide text is derived from it. The star is where a group is joined. Palmitoyl = CCCCCCCCCCCCCCCC(=O)*

Legend:
[1] = target: T1, somatostatin receptor (SSTR2) (Rattus norvegicus, UniProt P30680); assay: InsP formation in COS7 cells expressing SSTR2; assay type: cell-based; conditions: relative to full response to 1 μM AGCKNFFWKTFTSC
T1 construct: expressed in transfected cells; host or cells: COS7, transient

[2] = target: T2, PAR1 (Homo sapiens, UniProt P25116); assay: Inhibition of PAR1-dependent platelet Ca2+ signal; assay type: cell-based; conditions: for inhibition of PAR1-dependent Ca2+ response: SFLLRN (or thrombin) after peptide pre-treatment
T2 construct: expressed in transfected cells
T2 sequence (P25116 22-425): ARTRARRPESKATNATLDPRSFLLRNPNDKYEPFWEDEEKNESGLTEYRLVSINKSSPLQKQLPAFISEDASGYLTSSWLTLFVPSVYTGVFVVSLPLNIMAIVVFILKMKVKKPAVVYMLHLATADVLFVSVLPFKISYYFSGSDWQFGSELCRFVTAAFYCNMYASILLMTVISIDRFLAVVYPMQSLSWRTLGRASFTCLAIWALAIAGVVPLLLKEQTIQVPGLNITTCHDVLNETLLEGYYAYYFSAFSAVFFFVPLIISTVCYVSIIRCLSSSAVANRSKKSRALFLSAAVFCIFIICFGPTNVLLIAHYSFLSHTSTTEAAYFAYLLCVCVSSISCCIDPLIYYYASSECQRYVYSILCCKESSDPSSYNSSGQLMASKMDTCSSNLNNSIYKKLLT
Procedure: (§1) Platelet Ca2+ measurements were performed as in Example 1.
(§2) The integrated Ca^2+ response for the individual treatments are relative to the full Ca^2+ responses for each agonist (100%) recorded in the absence of P4pal-10 (top trace).

[3] = tested on: thrombin receptors on human platelets; assay: Inhibition of thrombin-induced human platelet aggregation; conditions: 3 nM thrombin; LBS1-PE at 25 micromolar
[4] = target: T3, PAR4 (Homo sapiens, UniProt Q96RI0); assay: Inhibition of AYPGKF-induced human platelet aggregation; assay type: cell-based
T3 sequence (Q96RI0 18-385): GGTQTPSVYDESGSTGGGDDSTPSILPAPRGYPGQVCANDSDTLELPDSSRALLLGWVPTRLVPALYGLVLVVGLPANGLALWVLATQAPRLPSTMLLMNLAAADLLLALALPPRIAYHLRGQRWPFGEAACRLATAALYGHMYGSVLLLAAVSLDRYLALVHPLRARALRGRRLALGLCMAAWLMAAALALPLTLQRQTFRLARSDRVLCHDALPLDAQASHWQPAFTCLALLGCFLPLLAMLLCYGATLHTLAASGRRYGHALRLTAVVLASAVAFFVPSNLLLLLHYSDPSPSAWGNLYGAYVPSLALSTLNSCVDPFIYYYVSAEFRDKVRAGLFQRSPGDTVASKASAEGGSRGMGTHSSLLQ

[5] = target: T3, PAR4; assay: Inhibition of PAR4-dependent platelet Ca2+ signal (AYPGKF); assay type: cell-based
Procedure: as §1, §2

[6] = target: T4, S309P PAR1 (Homo sapiens, UniProt P25116, S309P); assay: InsP formation in COS7 cells expressing S309P PAR1 mutant; assay type: cell-based; conditions: relative to wild type PAR1
T4 construct: expressed in transfected cells; host or cells: COS7, transient
T4 sequence (P25116 22-425 S309P): T2 sequence (P25116 22-425) with S288P

[7] = tested on: delta377 PAR1; assay: InsP formation in COS7 cells expressing delta377 (C-tail deleted) PAR1 mutant; assay type: cell-based, human; conditions: relative to wild type PAR1
[8] = target: T5, cholecystokinin B (CCKB) (Homo sapiens, UniProt P32239); assay: InsP formation in COS7 cells expressing CCKB; assay type: cell-based; conditions: relative to 300 nM CCK-8
T5 construct: expressed in transfected cells; host or cells: COS7, transient
T5 sequence (P32239 1-447): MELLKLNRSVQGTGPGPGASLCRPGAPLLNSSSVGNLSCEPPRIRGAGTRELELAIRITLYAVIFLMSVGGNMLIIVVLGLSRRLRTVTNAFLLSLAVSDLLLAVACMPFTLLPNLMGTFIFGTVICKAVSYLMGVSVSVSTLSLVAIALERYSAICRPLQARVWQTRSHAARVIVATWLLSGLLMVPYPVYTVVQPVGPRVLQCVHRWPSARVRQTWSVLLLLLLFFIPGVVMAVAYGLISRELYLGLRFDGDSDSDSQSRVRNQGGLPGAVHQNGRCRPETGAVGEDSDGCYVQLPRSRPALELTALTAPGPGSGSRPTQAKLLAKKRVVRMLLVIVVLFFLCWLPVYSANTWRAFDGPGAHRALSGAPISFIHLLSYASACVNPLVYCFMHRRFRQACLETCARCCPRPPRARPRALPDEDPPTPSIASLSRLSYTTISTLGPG

[9] = tested on: platelets; assay: Platelet intracellular Ca2+, agonist activity of peptides
[10] = 5 μM pepducin, SFLLRN followed by AYPGKF
[11] = 1.2-5 μM pepducin, AYPGKF first, then SFLLRN

T1 sequence (P30680 whole entry): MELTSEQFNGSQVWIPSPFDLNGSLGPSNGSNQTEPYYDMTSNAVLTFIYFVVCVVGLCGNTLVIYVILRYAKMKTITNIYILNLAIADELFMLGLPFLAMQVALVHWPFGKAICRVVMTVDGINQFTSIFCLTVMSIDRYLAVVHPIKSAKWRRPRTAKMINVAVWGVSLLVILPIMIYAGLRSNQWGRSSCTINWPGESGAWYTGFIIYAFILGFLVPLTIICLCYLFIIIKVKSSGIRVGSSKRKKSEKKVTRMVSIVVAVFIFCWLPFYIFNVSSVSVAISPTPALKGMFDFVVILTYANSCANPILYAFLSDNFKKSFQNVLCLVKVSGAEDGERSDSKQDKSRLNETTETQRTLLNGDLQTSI

Molecule: CCCCCCCCCCCCCCCC(=O)N[C@@H](CCCCN)C(=O)N[C@H](C(=O)N[C@@H](CCCNC(=N)N)C(=O)N[C@@H](CO)C(=O)N[C@@H](CO)C(=O)NCC(=O)N[C@H](C(=O)N[C@@H](CCCNC(=N)N)C(=O)N[C@H](C(=O)NCC(=O)N[C@@H](CO)C(=O)N[C@@H](CO)C(=O)N[C@@H](CCCCN)C(=O)N[C@@H](CCCNC(=N)N)C(=O)N[C@@H](CCCCN)C(=O)N[C@@H](CCCCN)C(=O)N[C@@H](CO)C(=O)N[C@@H](CCC(=O)O)C(=O)N[C@@H](CCCCN)C(=O)N[C@@H](CCCCN)C(=O)N[C@H](C(=O)N[C@H](C(=O)N[C@@H](Cc1ccccc1)C(N)=O)[C@@H](C)O)C(C)C)C(C)C)[C@@H](C)CC)C(C)C [Pepducin S2pal-23F] (Palmitoyl-KVRSSGIRVGSSKRKKSEKKVTF-NH2)
- Agonist Efficacy [1]: 15 ± 4%

Molecule: PAFISEDASGYL-C (PAFISEDASGYLC) [LBS1]
- inhibition of PAR1-dependent Ca2+ response [2]: relatively poor antagonist
- inhibition of PAR1-dependent Ca2+ response ([2]; listed as LBS-1): poor antagonist
- inhibition of aggregation [3]: did not inhibit

Molecule: CCCCCCCCCCCCCCCC(=O)N[C@@H](CO)C(=O)NCC(=O)N[C@@H](CCCNC(=N)N)C(=O)N[C@@H](CCCNC(=N)N)C(=O)N[C@@H](Cc1ccc(O)cc1)C(=O)NCC(=O)N[C@@H](Cc1c[nH]cn1)C(=O)N[C@@H](C)C(=O)N[C@@H](CC(C)C)C(=O)N[C@@H](CCCNC(=N)N)C(N)=O [Pepducin P4pal-10] (Palmitoyl-SGRRYGHALR-NH2)
- IC50 [4]: 500 to 1000 nM
- inhibition of PAR1 Ca2+ response [2, 10]: 36%
- attenuation of PAR1 Ca2+ signal [2, 11]: 17-67%
- inhibition of PAR4 Ca2+ response [5, 10]: 97%
- attenuation of PAR4 Ca2+ response [5, 11]: 50-80%

Molecule: SFLLRN
- loss of efficacy on S309P mutant [6]: 3.3 fold
- loss of potency on S309P mutant [6]: 28 fold
- shift of potency on delta377 mutant [7]: ~30 fold

Molecule: CCCCCCCCCCCCCCCC(=O)N[C@@H](CO)C(=O)NCC(=O)N[C@@H](CO)C(=O)N[C@@H](CCCNC(=N)N)C(=O)N1CCC[C@H]1C(=O)N[C@H](C(=O)N[C@@H](CCC(N)=O)C(=O)N[C@@H](C)C(=O)N[C@@H](CCCCN)C(=O)N[C@@H](CC(C)C)C(=O)N[C@@H](CC(C)C)C(=O)N[C@@H](C)C(=O)N[C@@H](CCCCN)C(=O)N[C@@H](CCCCN)C(=O)N[C@@H](CCCNC(=N)N)C(=O)N[C@H](C(=O)N[C@H](C(=O)N[C@@H](Cc1ccccc1)C(N)=O)C(C)C)C(C)C)[C@@H](C)O [Bpal-18F] (Palmitoyl-SGSRPTQAKLLAKKRVVF-NH2)
- Agonist Efficacy [8]: 13 ± 2%

Molecule: CCCCCCCCCCCCCCCC(=O)N[C@@H](CO)C(=O)NCC(=O)N[C@@H](CO)C(=O)N[C@@H](CCCNC(=N)N)C(=O)N1CCC[C@H]1C(=O)N[C@H](C(=O)N[C@@H](CCC(N)=O)C(=O)N[C@@H](C)C(=O)N[C@@H](CCCCN)C(=O)N[C@@H](CC(C)C)C(=O)N[C@@H](CC(C)C)C(=O)N[C@@H](C)C(=O)N[C@@H](CCCCN)C(=O)N[C@@H](CCCCN)C(=O)N[C@@H](CCCNC(=N)N)C(=O)N[C@H](C(=O)N[C@H](C(=O)N[C@@H](CCCNC(=N)N)C(N)=O)C(C)C)C(C)C)[C@@H](C)O [Bpal-18] (Palmitoyl-SGSRPTQAKLLAKKRVVR-NH2)
- Agonist Efficacy [8]: 12 ± 3%

Molecule: CCCCCCCCCCCCCCCC(=O)N[C@@H](Cc1c[nH]cn1)C(=O)N[C@H](C(=O)N[C@@H](CC(C)C)C(=O)N[C@@H](C)C(=O)N[C@@H](C)C(=O)N[C@@H](CO)C(=O)NCC(=O)N[C@@H](CCCNC(=N)N)C(=O)N[C@@H](CCCNC(=N)N)C(=O)N[C@@H](Cc1ccc(O)cc1)C(=O)NCC(=O)N[C@@H](Cc1c[nH]cn1)C(=O)N[C@@H](C)C(=O)N[C@@H](CC(C)C)C(=O)N[C@@H](CCCNC(=N)N)C(N)=O)[C@@H](C)O [Pepducin P4pal-15] (Palmitoyl-HTLAASGRRYGHALR-NH2)
- IC50 [4]: 600 nM
- inhibition of PAR4-dependent platelet aggregation ([4]; AYPGKF): effective inhibitor of platelet aggregation
- inhibition of PAR1-dependent Ca2+ response [2]: without affecting SFLLRN
- inhibition of PAR4-dependent Ca2+ response ([5]; 3 micromolar pepducin, 200 Micromolar AYPGKF): fully antagonize PAR4 signaling; also recorded: blocked AYPGKF
- agonist activity, platelet intracellular Ca2+ [9]: had no agonist activity
